Key:
Details in all cases: 72 h
[1] = system: Caco-2; experiment: cell viability relative to DMSO; higher = less toxic
[2] = system: Calu-3; experiment: as above
[3] = system: U2OS; experiment: as above
[4] = system: Vero E6; experiment: as above
[5] = system: HepG2; experiment: as above
[6] = system: Caco-2; experiment: relative viability EC50 (midpoint between 100% and the lowest measured viability); higher = less toxic
[7] = system: Calu-3; experiment: as above
[8] = system: U2OS; experiment: as above
[9] = system: Vero E6; experiment: as above
[10] = system: HepG2; experiment: as above
[11] = system: Caco-2; experiment: drug sensitivity score (DSS) for viability; higher = more toxic; extreme values may be limits of the assay
[12] = system: Calu-3; experiment: as above
[13] = system: U2OS; experiment: as above
[14] = system: Vero E6; experiment: as above
[15] = system: HepG2; experiment: as above

Row | Compound | cell viability ([1]; 1 nM) | cell viability ([1]; 10 nM) | cell viability ([1]; 100 nM) | cell viability ([1]; 1000 nM) | cell viability ([1]; 10000 nM) | cell viability ([2]; 1 nM) | cell viability ([2]; 10 nM) | cell viability ([2]; 100 nM) | cell viability ([2]; 1000 nM) | cell viability ([2]; 10000 nM) | cell viability ([3]; 1 nM) | cell viability ([3]; 10 nM) | cell viability ([3]; 100 nM) | cell viability ([3]; 1000 nM) | cell viability ([3]; 10000 nM) | cell viability ([4]; 1 nM) | cell viability ([4]; 10 nM) | cell viability ([4]; 100 nM) | cell viability ([4]; 1000 nM) | cell viability ([4]; 10000 nM) | cell viability ([5]; 1 nM) | cell viability ([5]; 10 nM) | cell viability ([5]; 100 nM) | cell viability ([5]; 1000 nM) | cell viability ([5]; 10000 nM) | relative viability EC50 [6] | relative viability EC50 [7] | relative viability EC50 [8] | relative viability EC50 [9] | relative viability EC50 [10] | drug sensitivity score [11] | drug sensitivity score [12] | drug sensitivity score [13] | drug sensitivity score [14] | drug sensitivity score [15]
1 | C=CCN1CC[C@]2(C)c3cc(O)ccc3C[C@H]1[C@H]2C | 97.3% | 99% | 102% | 103% | 96.3% | 102% | 90.2% | 94.7% | 90.3% | 93.8% | 98.6% | 98.2% | 103% | 99.2% | 101% | 96.9% | 102% | 93.4% | 100% | 107% | 98% | 95.4% | 108% | 104% | 117% | > 10 µM | > 10 µM | > 10 µM | > 10 µM | > 10 µM | 0 | 0 | 0 | 0 | 0
2 | CC(C)N(CCCNC(=O)Nc1ccc(C(C)(C)C)cc1)C[C@H]1O[C@@H](n2ccc3c(N)ncnc32)[C@H](O)[C@@H]1O | 99.7% | 97.2% | 95.2% | 86.5% | 103% | 96.3% | 106% | 92.4% | 102% | 108% | 94.1% | 100% | 92.9% | 102% | 101% | 94.3% | 97% | 97.4% | 99.9% | 99.5% | 104% | 105% | 107% | 91.5% | 111% | > 10 µM | > 10 µM | > 10 µM | > 10 µM | > 10 µM | 0 | 0 | 0 | 0 | 0
3 | CC(C)c1ccc(CC(=O)N2CCC[C@@H](c3cccc(OC(C)(C)C(=O)O)c3)C2)cc1 | 92.6% | 100% | 93.2% | 97.6% | 96.2% | 87.3% | 94.5% | 104% | 108% | 98.6% | 103% | 99.5% | 99.7% | 99.6% | 103% | 106% | 103% | 101% | 97.4% | 96.8% | 98.3% | 106% | 104% | 106% | 108% | > 10 µM | > 10 µM | > 10 µM | > 10 µM | > 10 µM | 0 | 0 | 0 | 0 | 0
4 | CC(O)(C(=O)Nc1ccc(S(=O)(=O)c2ccccc2)cc1)C(F)(F)F (configuration not stated) | 94.9% | 90.6% | 97% | 107% | 95.9% | 101% | 98.1% | 99.8% | 82.2% | 89.1% | 99.2% | 100% | 97.4% | 104% | 102% | 98.4% | 93.1% | 97.9% | 89.6% | 95.3% | 100% | 90.8% | 96.4% | 102% | 109% | > 10 µM | > 10 µM | > 10 µM | > 10 µM | > 10 µM | 0 | 2.1 | 0 | 0 | 0
5 | CC1(C)CCC(C)(C)c2c1cc(C(=O)Nc1cc(F)c(C(=O)O)c(F)c1)c(O)c2Cl | 105% | 94.3% | 96% | 86.9% | 85.7% | 105% | 92.8% | 89.9% | 86.5% | 85.7% | 100% | 96.9% | 90.7% | 97.2% | 92.7% | 95.4% | 105% | 105% | 94.2% | 95.5% | 102% | 105% | 115% | 112% | 92.7% | > 10 µM | > 10 µM | > 10 µM | > 10 µM | > 10 µM | 0.8 | 1.9 | 0 | 0 | 0
6 | CCCCCCCCc1ccc(-c2ccc(C(=O)O)cc2)cc1 | 100% | 107% | 81.5% | 98.7% | 97.3% | – | – | – | – | – | 99% | 106% | 96.8% | 93% | 95% | 101% | 99.7% | 97.7% | 97.7% | 106% | 101% | 99.8% | 97.2% | 101% | 97.3% | > 10 µM | – | > 10 µM | > 10 µM | > 10 µM | 0 | – | 0 | 0 | 0
7 | CN1CCC(c2c[nH]c3ccc(O)cc23)CC1 | 98.7% | 100% | 95.4% | 100% | 92.1% | 91.9% | 92.8% | 87.9% | 98.7% | 90.3% | 98% | 103% | 98.7% | 102% | 95.8% | 105% | 102% | 98.8% | 91.7% | 101% | 98.5% | 96% | 94.4% | 83.4% | 100% | > 10 µM | > 10 µM | > 10 µM | > 10 µM | > 10 µM | 0 | 0 | 0 | 0 | 0
8 | CN1CCN(C(=O)c2cc3cc(Cl)ccc3[nH]2)CC1 | 103% | 107% | 102% | 89.9% | 109% | 110% | 89.7% | 106% | 93.7% | 93.8% | 99.9% | 100% | 104% | 103% | 95.6% | 97.3% | 96.3% | 98.6% | 100% | 99.8% | 98.1% | 104% | 92.5% | 116% | 94.8% | > 10 µM | > 10 µM | > 10 µM | > 10 µM | > 10 µM | 0 | 0 | 0 | 0 | 0
9 | CNCCN(C)Cc1c[nH]nc1-c1ccc(O[C@H]2C[C@H](OCCC3CCOCC3)C2)cc1 | 99.7% | 100% | 107% | 90.4% | 99.6% | 96.2% | 97.3% | 94.1% | 100% | 100% | 99.5% | 97.6% | 100% | 96.4% | 97% | 100% | 105% | 95.9% | 102% | 101% | 98% | 102% | 109% | 96.8% | 90.9% | > 10 µM | > 10 µM | > 10 µM | > 10 µM | > 10 µM | 0 | 0 | 0 | 0 | 0
10 | CN[C@H](CNC(=O)N1CCC[C@@H]([C@@H](OCCNC(=O)OC)c2cccc(Cl)c2)C1)C[C@H]1CCCOC1 | 98.2% | 96.1% | 97.1% | 90.1% | 94.5% | 103% | 96.2% | 102% | 102% | 98.1% | 97.3% | 98.1% | 106% | 97.7% | 99.1% | 101% | 101% | 98.4% | 107% | 98.5% | 101% | 108% | 92.5% | 98.6% | 95% | > 10 µM | > 10 µM | > 10 µM | > 10 µM | > 10 µM | 0 | 0 | 0 | 0 | 0
11 | COC(=O)c1c(C)[nH]c(C)c1C(=O)c1ccccc1Cc1ccccc1 | 98.6% | 97.1% | 98.1% | 99.9% | 84.8% | 90.1% | 106% | 89.8% | 108% | 90.1% | 99.5% | 103% | 87.8% | 102% | 92.1% | 100% | 101% | 98% | 94.1% | 99.8% | 99.2% | 94.8% | 109% | 95.8% | 104% | > 10 µM | > 10 µM | > 10 µM | > 10 µM | > 10 µM | 0.3 | 0 | 0 | 0 | 0
12 | COc1cc(OC)c(C(=O)CCCCN2CCC3(CC2)NC(=O)NC3=O)cc1NS(=O)(=O)c1ccc(C(F)(F)F)cc1 | 102% | 103% | 107% | 98.7% | 93.6% | 98.2% | 108% | 81.2% | 93.9% | 93.6% | 98.8% | 106% | 99.7% | 101% | 94.7% | 103% | 106% | 102% | 99.5% | 99.7% | 102% | 111% | 95.3% | 89.1% | 105% | > 10 µM | > 10 µM | > 10 µM | > 10 µM | > 10 µM | 0 | 0 | 0 | 0 | 0
13 | COc1ccc(C2CC(c3c(O)cc(C)oc3=O)=NCCS2)c(OC)c1 (configuration not stated) | 103% | 98.7% | 99.5% | 64.4% | 47.4% | 105% | 105% | 97.7% | 80.4% | 57% | 102% | 97% | 93.9% | 69.8% | 33.2% | 100% | 105% | 101% | 35.9% | 31% | 94.9% | 106% | 92.8% | 44.4% | 36.6% | 0.73 µM | – | 1.1 µM | 0.391 µM | 0.328 µM | 7.1 | 4.4 | 7.1 | 11.8 | 11.2
14 | COc1ccc(Oc2c(Cl)cnn(C3c4ccccc4-c4ccccc43)c2=O)cc1 | 98.7% | 95% | 97% | 101% | 88.7% | 110% | 99.9% | 96.4% | 101% | 101% | 102% | 95.1% | 94.3% | 97.9% | 95.5% | 92.6% | 107% | 94.7% | 96.4% | 99.6% | 103% | 99.8% | 93.5% | 108% | 100% | > 10 µM | > 10 µM | > 10 µM | > 10 µM | > 10 µM | 0 | 0 | 0 | 0 | 0
15 | COc1ccc2c(c1)C(C(=O)N(Cc1ccc(N(C)C)cc1)c1ccc(C(C)C)cc1)CCC2 (configuration not stated) | 105% | 96.3% | 105% | 95.9% | 75.5% | 90.3% | 98.9% | 96.9% | 88% | 107% | 102% | 100% | 102% | 98.2% | 100% | 101% | 103% | 99.3% | 103% | 105% | 99.8% | 109% | 98.5% | 109% | 102% | > 10 µM | > 10 µM | > 10 µM | > 10 µM | > 10 µM | 1.5 | 0 | 0 | 0 | 0

Source: the supplement of paper PMC13380429
